Data on three molecules can be found in PMC7761077, “Differential Effects of Cancer-Associated Mutations Enriched in Helix H3 of PPARγ” (Cancers, 2020).

As usually defined, the Kd is the equilibrium constant for the complex coming apart. A high value points to lower affinity.

Experiment [1] deals with MED1 co-activator peptide containing the LXXLL motif. Kind of experiment: SPR; MED1 peptide amine-coupled to a CM5 chip (about 60 RU); PPARγ LBD WT or mutant injected at 78 nM to 10 μM, 30 μL/min, 120 s, dissociation 400 s; Biacore T200, 25 °C; 50 mM Tris-HCl pH 7.5, 150 mM NaCl, 1 mM TCEP, 0.005% tween 20; 1:1 Langmuir model. (Surface plasmon resonance follows binding to a sensor surface in real time, without labels.)

Experiment [2] deals with RXRα LBD. Kind of experiment: SPR heterodimerization of PPARγ LBD proteins with immobilized RXRα LBD. Type of experiment: binding. The method, then:
The transcriptional activity of PPARγ is regulated by heterodimer formation with RXRα and the recruitment of co-regulators.
(§1) The binding affinities of PPARγ LBD with lobeglitazone, RXRα and MED1 were investigated by SPR kinetics experiments. All SPR experiments were conducted at 25 °C in a Biacore T200 system (GE Healthcare). For immobilization, an amine coupling kit containing 0.1 M N-hydroxysuccinimide and 0.4 M 1-ethyl-3-(3-dimethylaminopropyl) carbodiimide hydrochloride on a CM5 sensor chip with HBS-EP (HEPES-buffered saline with EDTA and surfactant P20) buffer (10 mM HEPES pH 7.5, 150 mM NaCl, 3 mM EDTA, 0.005% tween 20) was used according to the manufacturer’s protocol (GE Healthcare). […] The remaining activated carboxyl groups on the CM5 sensor chip surface were deactivated with 1 M ethanolamine at pH 8.5 for 400 s. The control experiment was treated identically with reference flow cell 1 or 3 without proteins and the response by the control was subtracted from each sample dataset. […] The sensor chip surface was regenerated for 5 s with 5 mM NaOH between cycles. […] The SPR response data were fit to the simple bimolecular 1:1 Langmuir isotherm binding model to determine the equilibrium dissociation constant (KD) using Biacore T200 evaluation software 3.0 (GE Healthcare).

In experiment [3] the test system is MED1 peptide. Kind of experiment: SPR binding of PPARγ LBD proteins to immobilized MED1 co-activator peptide. The method, then:
Next, we evaluated the interaction between PPARγ LBD and MED1 co-activator peptides containing the LXXLL motif, where X represents any amino acid residue, by SPR (Figure 3D–F and Figure S8).
as §1

The target of experiment [4] is T1, PPARγ LBD WT (peroxisome proliferator-activated receptor gamma ligand-binding domain, wild-type) (human, UniProt P37231-2 195-477).
T1 construct: numbers count on: the PPARγ1 isoform; pET-28b(+) between Nde1 and Xho1; also called PPARγ WT; source: E. coli Rosetta 2(DE3), purified (Ni2+ HiTrap chelating, thrombin cleavage, Superdex200 gel filtration); not shown: His6, N-terminal, cleaved
T1 sequence (looked up): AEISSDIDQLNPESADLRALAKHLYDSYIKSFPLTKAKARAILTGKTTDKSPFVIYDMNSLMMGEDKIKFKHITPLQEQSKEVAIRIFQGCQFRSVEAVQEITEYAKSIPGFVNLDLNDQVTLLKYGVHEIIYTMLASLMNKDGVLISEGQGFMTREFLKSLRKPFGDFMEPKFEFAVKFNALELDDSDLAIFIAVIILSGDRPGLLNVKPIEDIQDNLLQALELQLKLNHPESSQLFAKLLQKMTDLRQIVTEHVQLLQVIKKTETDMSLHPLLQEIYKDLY
The experiment in a line: SPR; RXRα LBD amine-coupled to a CM5 chip (about 600 RU); PPARγ LBD WT or mutant injected, 30 μL/min, 120 s, dissociation 500 s; Biacore T200, 25 °C; 50 mM Tris-HCl pH 7.5, 150 mM NaCl, 1 mM TCEP, 0.005% tween 20; 1:1 Langmuir model. Particulars: both partners purified.

“PPARγ LBD WT (peroxisome proliferator-activated receptor gamma ligand-binding domain, wild-type) (from UniProt P37231-2 195-477) (domain or fragment)”: the dissociation constant Kd in experiment [1] is 8.45 µM. In other words, the single-digit micromolar range.

As for “PPARγ LBD WT: recombinant human PPARγ ligand-binding domain (residues 195–477), wild-type”, in experiment [2], the “ka for RXRα LBD” value was found to be 396000 M⁻¹ s⁻¹ and the “kd for RXRα LBD” value turned out to be 0.0223 s⁻¹. Besides, binding in experiment [2] (25 °C, RXRα LBD immobilized) was characterised by a dissociation constant (Kd) of 0.0579 µM. Also, in experiment [3], the “ka for MED1 peptide” value is 146000 M⁻¹ s⁻¹ and the “kd for MED1 peptide” value was 1.24 s⁻¹. This molecule returned a Kd in experiment [3] (25 °C, MED1 peptide immobilized) of 8.45 µM.

B1: RXRα LBD (retinoid X receptor α ligand-binding domain) (domain or fragment, UniProt P19793 223-462, looked up)
chain: TSSANEDMPVERILEAELAVEPKTETYVEANMGLNPSSPNDPVTNICQAADKQLFTLVEWAKRIPHFSELPLDDQVILLRAGWNELLIASFSHRSIAVKDGILLATGLHVHRNSAHSAGVGAIFDRVLTELVSKMRDMQMDKTELGCLRAIVLFNPDSKGLSNPAEVEALREKVYASLEAYCKHKYPEQPGRFAKLLLRLPALRSIGLKCLEHLFFFKLIGDTPIDTFLMEMLEAPHQMT
For B1, the affinity in experiment [4], expressed as Kd, was 0.0579 µM. That is a double-digit nanomolar value.
